# Test results reported in patent US8178678B2, “Bis-quaternary ammonium salts and methods for modulating neuronal nicotinic acetylcholine receptors” (University of Kentucky Research Foundation, priority 2006, dated 2012).
# Legend:
# [1] = biological target: T1, Rat Striatal Nicotinic Receptors ([^3H]MLA binding sites; α7) (Rattus norvegicus, UniProt Q05941); test: Inhibition of [^3H]MLA (methyllycaconitine) binding; details: 100 nM analog; [^3H]MLA; nonspecific S-nicotine; rat brain membranes; read-out: [^3H]MLA binding, % inhibition
# T1 construct: Whole brain, excluding cortex and cerebellum, was homogenized in 20 vol of ice-cold buffer; from tissue; host or cells: rat brain membranes (whole brain excluding cortex and cerebellum)
# T1 sequence (Q05941 23-502): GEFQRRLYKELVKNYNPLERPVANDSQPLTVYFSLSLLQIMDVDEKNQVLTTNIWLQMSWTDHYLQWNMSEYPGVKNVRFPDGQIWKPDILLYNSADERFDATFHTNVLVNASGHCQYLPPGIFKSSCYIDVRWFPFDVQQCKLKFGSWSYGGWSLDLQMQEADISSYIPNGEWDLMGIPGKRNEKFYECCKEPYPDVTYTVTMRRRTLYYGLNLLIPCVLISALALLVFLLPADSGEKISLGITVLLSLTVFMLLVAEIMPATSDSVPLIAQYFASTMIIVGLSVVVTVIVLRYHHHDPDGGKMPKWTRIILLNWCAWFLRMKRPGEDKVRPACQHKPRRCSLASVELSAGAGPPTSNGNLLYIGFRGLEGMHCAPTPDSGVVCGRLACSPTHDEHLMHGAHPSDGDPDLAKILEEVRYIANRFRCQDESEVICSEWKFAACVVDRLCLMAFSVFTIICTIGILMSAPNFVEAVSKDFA
# Description: Homogenate was centrifuged (25,000 g, 15 min, 4° C). Pellets were resuspended in 20 vol buffer and incubated at 37° C., for 10 min, cooled to 4° C. and centrifuged (25,000 g, 15 min, 4° C.). Pellets were resuspended and centrifuged using the same conditions. […] Upon use, final pellets were resuspended in 20 vol assay buffer. Samples (250 μl) contained 100-140 μg of membrane protein, 3 nM [^3H]-S-nicotine or 3 nM [^3H]-methyllycaconitine (MLA), and bis-quaternary ammonium analog (100 nM) in assay buffer containing 50 mM Tris. Control was in the absence of analog. In [^3H]-S-nicotine and [^3H]-methyllycaconitine binding assays, nonspecific binding was determined in the presence of 10 μM cytisine and 10 μM S-nicotine, respectively. Incubations proceeded for 60 min at room temperature using 96-well plates and were terminated by harvesting on Unifilter-96 GF/B filter plates presoaked in 0.5% polyethylenimine, using a Packard FilterMate harvester. After washing 5 times with 350 μl ice-cold assay buffer, filter plates were dried (60 min, 4° C.), bottom-sealed, and filled with Packard's MicroScint 20 cocktail (40 μl/well). After 60 min, filter plates were top-sealed, and radioactivity determined using a Packard TopCount. Protein concentrations were determined using the Bradford dye-binding procedure bovine serum albumin as the standard. […]
# [2] = biological target: T2, Rat Striatal Nicotinic Receptors ([^3H]NIC binding sites; α4β2) (Rattus norvegicus, UniProt P09483+P12390); test: Inhibition of [^3H]NIC binding; details: 1 h; 100 nM analog; 3 nM [^3H]NIC; nonspecific 10 μM cytisine; rat brain membranes
# T2 construct: Whole brain, excluding cortex and cerebellum, was homogenized in 20 vol of ice-cold buffer; from tissue; host or cells: rat brain membranes (whole brain excluding cortex and cerebellum)
# T2 sequence (P09483 31-630): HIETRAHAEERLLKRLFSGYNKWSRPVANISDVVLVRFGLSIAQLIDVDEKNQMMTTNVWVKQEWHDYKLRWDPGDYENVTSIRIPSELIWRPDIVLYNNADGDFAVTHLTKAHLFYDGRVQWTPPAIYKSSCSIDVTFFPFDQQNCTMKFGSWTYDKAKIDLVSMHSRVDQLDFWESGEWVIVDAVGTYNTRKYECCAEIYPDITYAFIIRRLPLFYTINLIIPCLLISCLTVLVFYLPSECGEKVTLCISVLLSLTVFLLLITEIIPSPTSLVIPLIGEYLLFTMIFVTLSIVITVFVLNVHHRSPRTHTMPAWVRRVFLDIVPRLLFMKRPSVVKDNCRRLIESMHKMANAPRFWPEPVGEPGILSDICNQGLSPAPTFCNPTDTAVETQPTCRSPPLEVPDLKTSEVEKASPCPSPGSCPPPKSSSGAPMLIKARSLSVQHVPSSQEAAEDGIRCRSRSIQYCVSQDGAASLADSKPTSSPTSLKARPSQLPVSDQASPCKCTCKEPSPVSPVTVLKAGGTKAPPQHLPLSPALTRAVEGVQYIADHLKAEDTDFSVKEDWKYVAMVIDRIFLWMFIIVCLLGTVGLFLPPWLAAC
# T2 sequence (P12390 25-500): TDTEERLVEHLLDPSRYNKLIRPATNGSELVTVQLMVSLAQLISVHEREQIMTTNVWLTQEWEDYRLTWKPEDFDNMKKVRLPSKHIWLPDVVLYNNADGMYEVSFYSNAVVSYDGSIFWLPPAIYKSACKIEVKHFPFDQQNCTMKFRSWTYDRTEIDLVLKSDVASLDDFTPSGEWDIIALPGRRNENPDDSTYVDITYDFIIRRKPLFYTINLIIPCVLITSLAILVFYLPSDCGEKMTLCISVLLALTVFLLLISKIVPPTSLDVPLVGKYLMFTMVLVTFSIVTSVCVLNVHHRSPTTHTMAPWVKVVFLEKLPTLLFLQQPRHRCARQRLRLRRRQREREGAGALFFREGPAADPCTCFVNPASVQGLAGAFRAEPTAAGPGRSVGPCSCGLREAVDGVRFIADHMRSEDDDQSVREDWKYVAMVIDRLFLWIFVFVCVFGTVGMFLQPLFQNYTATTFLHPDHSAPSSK
# Description: Homogenate was centrifuged (25,000 g, 15 min, 4° C). Pellets were resuspended in 20 vol buffer and incubated at 37° C., for 10 min, cooled to 4° C. and centrifuged (25,000 g, 15 min, 4° C.). Pellets were resuspended and centrifuged using the same conditions. […] Upon use, final pellets were resuspended in 20 vol assay buffer. Samples (250 μl) contained 100-140 μg of membrane protein, 3 nM [^3H]-S-nicotine or 3 nM [^3H]-methyllycaconitine (MLA), and bis-quaternary ammonium analog (100 nM) in assay buffer containing 50 mM Tris. Control was in the absence of analog. In [^3H]-S-nicotine and [^3H]-methyllycaconitine binding assays, nonspecific binding was determined in the presence of 10 μM cytisine and 10 μM S-nicotine, respectively. Incubations proceeded for 60 min at room temperature using 96-well plates and were terminated by harvesting on Unifilter-96 GF/B filter plates presoaked in 0.5% polyethylenimine, using a Packard FilterMate harvester. After washing 5 times with 350 μl ice-cold assay buffer, filter plates were dried (60 min, 4° C.), bottom-sealed, and filled with Packard's MicroScint 20 cocktail (40 μl/well). After 60 min, filter plates were top-sealed, and radioactivity determined using a Packard TopCount. Protein concentrations were determined using the Bradford dye-binding procedure bovine serum albumin as the standard.
# Specific binding in the [^3H]NIC binding assay is calculated as the difference between the total binding of 3 nM [^3H]NIC and nonspecific binding in the presence of 10 μM cold cytisine. […] Analog-induced inhibition of S-nicotine-evoked [^3H]DA release is calculated as a percent of that in the absence of the bis-quaternary ammonium analog.
SMILES,inhibition at 0.1 µM [1] [%],inhibition at 0.1 µM [2] [%]
"Cc1cc[n+](CCCC/C=C\C=C/CCCC[n+]2ccc(C)cc2C)c(C)c1 [Example 7, cis-cis-N,N′-(dodeca-5,7-diene-1,12-diyl)-bis-(2,4-dimethyl-pyridinium)dibromide]",6,1
"Cc1cc[n+](CCCC/C=C\C=C/CCCC[n+]2ccc(C)c(C)c2)cc1C [Example 8, cis-cis-N,N′-(dodeca-5,7-diene-1,12-diyl)-bis-(3,4-dimethyl-pyridinium)dibromide]",0,0
"Cc1cc(C)c[n+](CCCC/C=C\C=C/CCCC[n+]2cc(C)cc(C)c2)c1 [Example 9, cis-cis-N,N′-(dodeca-5,7-diene-1,12-diyl)-bis-(3,5-dimethyl-pyridinium)dibromide]",0,0
"CCc1ccc[n+](CCCCc2ccc(CCCC[n+]3cccc(CC)c3)cc2)c1 [Example 14, N,N′-[1,4-phenylenedi-(4-butanyl)]-bis-(3-ethylpyridinium)dibromide]",4,2
"Cc1cc[n+](CCCCc2ccc(CCCC[n+]3ccc(C)cc3C)cc2)c(C)c1 [Example 18, N,N′-[1,4-phenylenedi-(4-butanyl)]-bis-(2,4-dimethylpyridinium)dibromide]",0,0
"Cc1cc[n+](CCCCc2ccc(CCCC[n+]3ccc(C)c(C)c3)cc2)cc1C [Example 19, N,N′-[1,4-phenylenedi-(4-butanyl)]-bis-(3,4-dimethylpyridinium)dibromide]",0,0
"Cc1cc(C)c[n+](CCCCc2ccc(CCCC[n+]3cc(C)cc(C)c3)cc2)c1 [Example 20, N,N′-[1,4-phenylenedi-(4-butanyl)]-bis-(3,5-dimethylpyridinium)dibromide]",0,1
"CCCCc1ccc[n+](CCCCCc2ccccc2CCCCC[n+]2cccc(CCCC)c2)c1 [Example 43, 1,2-bis-[5-(3-n-butyl-pyridinium)-pentyl]-benzene dibromide]",5.5,0.8
"CCCCc1ccc[n+](CCCC#Cc2cccc(C#CCCC[n+]3cccc(CCCC)c3)c2)c1 [Example 57, 1,3-bis-[5-(3-n-butyl-pyridinium)-pent-1-ynyl]-benzene dibromide]",8.7,3.5
"Cc1cc(C)c[n+](CCCc2ccc(-c3ccc(CCC[n+]4cc(C)cc(C)c4)cc3)cc2)c1 [Example 71, N,N′-[(1,1′-biphenyl)-4,4′-di-(3-propanyl)]-bis-(3,5-dimethylpyridinium)dibromide]",3.6,1.6
"Cc1cc[n+](CCCc2ccc(-c3ccc(CCC[n+]4ccc(C)c(C)c4)cc3)cc2)cc1C [Example 72, N,N′-[(1,1′-biphenyl)-4,4′-di-(3-propanyl)]-bis-(3,4-dimethylpyridinium)dibromide]",5.5,0
"Cc1cc[n+](CCCc2ccc(-c3ccc(CCC[n+]4ccc(C)cc4C)cc3)cc2)c(C)c1 [Example 73, N,N′-[(1,1′-biphenyl)-4,4′-di-(3-propanyl)]-bis-(2,4dimethylpyridinium)dibromide]",0.6,3
"OCCCc1ccc[n+](CCCc2ccc(-c3ccc(CCC[n+]4cccc(CCCO)c4)cc3)cc2)c1 [Example 74, N,N′-[(1,1′-biphenyl)-4,4′-di-(3-propanyl)]-bis-[3-(3-hydroxy-propyl)-pyridinium]dibromide]",5.8,2
"c1cc2c([n+](CCCc3ccc(-c4ccc(CCC[n+]5cccc6c5CCCC6)cc4)cc3)c1)CCCC2 [Example 75, N,N′-[(1,1′-biphenyl)-4,4′-di-(3-propanyl)]-bis-[5,6,7,8-tetrahydroquinolinium]dibromide]",10,0.4
"c1cc(-c2ccc(CCC[n+]3ccc4c(c3)CCCC4)cc2)ccc1CCC[n+]1ccc2c(c1)CCCC2 [Example 76, N,N′-[(1,1′-biphenyl)-4,4′-di-(3-propanyl)]-bis-[5,6,7,8-tetrahydroisoquinolinium]dibromide]",5.1,0
"Cc1cc[n+](CCCc2ccc(-c3ccc(CCC[n+]4ccc(C)cc4)cc3)cc2)cc1 [Example 77, N,N′-[(1,1′-biphenyl)-4,4′-di-(3-propanyl)]-bis-(4-methylpyridinium)dibromide]",0,0
"Cc1cccc[n+]1CCCc1ccc(-c2ccc(CCC[n+]3ccccc3C)cc2)cc1 [Example 79, N,N′-[(1,1′-biphenyl)-4,4′-di-(3-propanyl)]-bis-(2-methylpyridinium)dibromide]",0,0
"CN1CCC[C@H]1c1ccc[n+](CCOCCOCCOCC[n+]2cccc([C@@H]3CCCN3C)c2)c1 [Example 80, N,N′-{2,2′-[oxybis-(2,1-ethandiyloxy)]bis-ethyl}-bis-[3-(2′-S-1-methyl-pyrrolidin-2-yl)-pyridinium]dichloride]",13,7.2
"Cc1cccc[n+]1CCOCCOCCOCC[n+]1ccccc1C [Example 81, N,N′-{2,2′-[oxybis-(2,1-ethandiyloxy)]bis-ethyl}-bis(2-methylpyridinium)dichloride]",17,8.5
"c1cc2c([n+](CCOCCOCCOCC[n+]3cccc4c3CCCC4)c1)CCCC2 [Example 84, N,N′-{2,2′-[oxybis-(2,1-ethandiyloxy)]bis-ethyl}-bis(5,6,7,8-tetrahydroquinolinium)dichloride]",4.7,0
"c1c[n+](CCOCCOCCOCC[n+]2ccc3c(c2)CCCC3)cc2c1CCCC2 [Example 85, N,N′-{2,2′-[oxybis-(2,1-ethandiyloxy)]bis-ethyl}-bis(5,6,7,8-tetrahydroisoquinolinium)dichloride]",16,6
"OCCCc1ccc[n+](CCOCCOCCOCC[n+]2cccc(CCCO)c2)c1 [Example 86, N,N′-{2,2′-[oxybis-(2,1-ethandiyloxy)]bis-ethyl}-bis-[3-(3-hydroxypropyl)-pyridinium]dichloride]",8.5,8.2
"OCc1ccc[n+](CCOCCOCCOCC[n+]2cccc(CO)c2)c1 [Example 87, N,N′-{2,2′-[oxybis-(2,1-ethandiyloxy)]bis-ethyl}-bis-(3-hydroxymethylpyridinium)dichloride]",11,8.2
"Cc1cc[n+](CCOCCOCCOCC[n+]2ccc(C)cc2C)c(C)c1 [Example 88, N,N′-{2,2′-[oxybis-(2,1-ethandiyloxy)]bis-ethyl}-bis-(2,4-dimethylpyridinium)dichloride]",2.9,0
"Cc1cc[n+](CCOCCOCCOCC[n+]2ccc(C)c(C)c2)cc1C [Example 89, N,N′-{2,2′-[oxybis-(2,1-ethandiyloxy)]bis-ethyl}-bis-(3,4-dimethylpyridinium)dichloride]",14,13
